Data taken from ChEMBL document CHEMBL3232865, “Development and characterization of 3-(benzylsulfonamido)benzamides as potent and selective SIRT2 inhibitors” (Eur J Med Chem, 2014).

How the values were obtained:
[1] = in vitro; conditions: mouse, microsomes
[2] = in vitro; conditions: mouse, microsomes; remark: listed apart in the source
[3] = in vitro; conditions: human, microsomes
[4] = in vitro; conditions: human, microsomes; remark: listed apart in the source
[5] = in vitro; conditions: mouse, microsomes; remark: listed apart in the source
[6] = in vitro; conditions: mouse, microsomes; remark: listed apart in the source
[7] = in vitro; conditions: human, microsomes; remark: listed apart in the source
[8] = human, microsomes, 1 h, 1 µM
[9] = mouse, microsomes, 1 µM
[10] = mouse, microsomes, 1 µM; remark: listed apart in the source
[11] = in vitro; conditions: mouse, microsomes; remark: listed apart in the source
[12] = in vitro; conditions: human, microsomes; remark: listed apart in the source
[13] = in vitro; conditions: human, microsomes; remark: listed apart in the source
[14] = human, microsomes, 1 µM
[15] = Metabolic stability in mouse plasma assessed as compound remaining at 5 uM; format: ADME, cell-free; conditions: read-out: Stability
[16] = Half life in mouse plasma at 5 uM; format: ADME, cell-free

Row | remaining at 1 µM [1] [%] | remaining at 1 µM [2] [%] | remaining at 1 µM [3] [%] | remaining at 1 µM [4] [%] | SMILES | further results
1 | 2 | 90 | 2 | 106 | COc1ccc(N(C)S(=O)(=O)c2cccc(C(=O)Nc3ccc(C#N)cc3)c2)cc1 | 
2 | 0 | 91 | 12 | 82 | CC(=O)c1ccc(N(C)S(=O)(=O)c2cccc(C(=O)Nc3ccc(Cl)cn3)c2)cc1 | 

The next lines start with the compound.

Row | SMILES | remaining at 1 µM [1] [%] | remaining at 1 µM [2] [%] | remaining at 1 µM [3] [%] | remaining at 1 µM [4] [%] | further results
3 | CC(=O)c1ccc(N(C)S(=O)(=O)c2cccc(C(=O)Nc3ccc(Cl)cc3)c2)cc1 | 0 | 108 | 12 |  | 
4 | CN(c1ccc(S(C)(=O)=O)cc1)S(=O)(=O)c1cccc(NC(=O)c2ccc(Br)cc2)c1 |  |  |  |  | half-life at 1 µM [5]: 2.45 min; microsomal CLint at 1 µM [6]: 945 µL/min/mg; half-life at 1 µM [7]: 4.5 min; Stability [8]: 0.9%; t1/2 [9]: 1.7 min; CL [10]: 136 µL/min/mg; remaining at 1 h, 1 µM [11]: 1.5%; microsomal CLint at 1 µM [12]: 31 µL/min/mg; microsomal CLint at 1 µM [13]: 512 µL/min/mg; t1/2 [14]: 75.7 min
5 | CN(c1ccc(F)cc1)S(=O)(=O)c1cccc(C(=O)Nc2ccc(C#N)cc2)c1 |  |  | 16 |  | 
6 | CC(C)[N+](C)(CCOC(=O)C1c2ccccc2Oc2ccccc21)C(C)C [PROPANTHELINE] |  |  |  |  | remaining at 5 µM [15]: 3.4%; half-life at 5 µM [16]: 18 min
7 | CN(c1ccc(Cl)cc1)S(=O)(=O)c1cccc(C(=O)Nc2ccc(C#N)cn2)c1 | 1 | 96 | 2 | 91 | 
8 | CN(c1ccc(Cl)cc1)S(=O)(=O)c1cccc(C(=O)Nc2ccc(S(C)(=O)=O)cc2)c1 | 4 | 100 | 2 | 112 | 
